Reference: ChEMBL document CHEMBL4765389, “Antimicrobial and anti-inflammatory activities of short dodecapeptides derived from duck cathelicidin: Plausible mechanism of bactericidal action and endotoxin neutralization” (Eur J Med Chem, 2020)
The source made the active and inactive calls. The rule behind the calls is not given here.

What was measured:
Staphylococcus aureus [1] = assay: Antibacterial activity against methicillin-resistant Staphylococcus aureus CCARM 3090 assessed as fractional inhibitory concentration incubated for 24 hrs in presence of chloramphenicol by CLSI based broth dilution method; assay type: functional
Staphylococcus aureus [2] = assay: Antibacterial activity against methicillin-resistant Staphylococcus aureus CCARM 3090 assessed as fractional inhibitory concentration index incubated for 24 hrs in presence of chloramphenicol by CLSI based broth dilution method; assay type: functional
Staphylococcus aureus [3] = assay: Antibacterial activity against methicillin-resistant Staphylococcus aureus CCARM 3090 assessed as reduction in bacterial growth incubated for 24 hrs in presence of chloramphenicol by CLSI based broth dilution method; assay type: functional; details: read-out: MIC100
Escherichia coli [4] = assay: Antibacterial activity against Escherichia coli KCTC 1682 assessed as reduction in bacterial growth incubated for 24 hrs in presence of 1 mM MgCl2 by CLSI based broth dilution method; assay type: functional; details: read-out: MIC100
[5] = Antibacterial activity against multidrug-resistant Pseudomonas aeruginosa CCARM 2095 assessed as fractional inhibitory concentration index incubated for 24 hrs in presence of chloramphenicol by CLSI based broth dilution method; assay type: functional
[6] = Antibacterial activity against multidrug-resistant Pseudomonas aeruginosa CCARM 2095 assessed as fractional inhibitory concentration index incubated for 24 hrs in presence of oxacillin by CLSI based broth dilution method; assay type: functional
Lipopolysaccharide (LPS) [7] = assay: Inhibition of Escherichia coli O111:B4 LPS aggregation assessed as increase in FITC-LPS dissociation by spectrofluorometry
Escherichia coli [8] = assay: Antibacterial activity against Escherichia coli KCTC 1682 assessed as reduction in bacterial growth incubated for 24 hrs in presence of 6 uM NH4Cl by CLSI based broth dilution method; assay type: functional; details: read-out: MIC100
RAW264.7 [9] = assay: Antiinflammatory activity in mouse RAW264.7 cells assessed as neutralization of LPS binding by measuring LPS-FITC aggregation at 10 uM pretreated with LPS for 1 hr followed by compound addition and measured after 1 hr by flowcytometry analysis (reference value: 48.12 %); assay type: functional
Escherichia coli [10] = assay: Antibacterial activity against Escherichia coli KCTC 1682 assessed as reduction in bacterial growth incubated for 24 hrs in presence of 20 % serum by CLSI based broth dilution method; assay type: functional; details: read-out: MIC100
Cell membrane [11] = assay: Induction of cell membrane permeability in Staphylococcus aureus KCTC 1621 assessed as cytoplasmic membrane depolarization at 2 times MIC by DiSC3-5 dye based spectrofluorometry; assay type: subcellular
Staphylococcus aureus [12] = assay: Antibacterial activity against Staphylococcus aureus KCTC 1621 assessed as reduction in bacterial growth incubated for 24 hrs in presence of 2.5 mM CaCl2 by CLSI based broth dilution method; assay type: functional; details: read-out: MIC100
Staphylococcus aureus [13] = assay: Antibacterial activity against Staphylococcus aureus KCTC 1621 assessed as reduction in bacterial growth incubated for 24 hrs in presence of 4 uM FeCl3 by CLSI based broth dilution method; assay type: functional; details: read-out: MIC100
[14] = Antibacterial activity against multidrug-resistant Pseudomonas aeruginosa CCARM 2095 assessed as fractional inhibitory concentration index incubated for 24 hrs in presence of ciprofloxacin by CLSI based broth dilution method; assay type: functional
Escherichia coli [15] = assay: Antibacterial activity against Escherichia coli KCTC 1682 assessed as reduction in bacterial growth incubated for 24 hrs in presence of 4 uM FeCl3 by CLSI based broth dilution method; assay type: functional; details: read-out: MIC100
Lipopolysaccharide (LPS) [16] = assay: Displacement of BODIPY-TR cadaverine from Escherichia coli O111:B4 LPS at 10 uM measured for 100 sec by spectrofluorometry relative to control
Staphylococcus aureus [17] = assay: Antibacterial activity against methicillin-resistant Staphylococcus aureus CCARM 3090 assessed as fractional inhibitory concentration index incubated for 24 hrs in presence of ciprofloxacin by CLSI based broth dilution method; assay type: functional
Cell membrane [18] = assay: Induction of cell membrane permeability in Escherichia coli KCTC 1682 assessed as cytoplasmic membrane […] fluorescent signals at 2 times MIC measured after 1 hr by propidium iodide dye based flow cytometry analysis (reference value: 9.8 %); assay type: subcellular
Staphylococcus aureus [19] = assay: Antibacterial activity against methicillin-resistant Staphylococcus aureus CCARM 3090 assessed as reduction in bacterial growth incubated for 24 hrs in presence of oxacillin by CLSI based broth dilution method; assay type: functional; details: read-out: MIC100
Cell membrane [20] = assay: Induction of cell membrane permeability in Escherichia coli KCTC 1682 assessed as […] at 2 times MIC by ONPG dye based spectrophotometry; assay type: subcellular
[21] = Antibacterial activity against multidrug-resistant Pseudomonas aeruginosa CCARM 2095 assessed as fractional inhibitory concentration incubated for 24 hrs in presence of oxacillin by CLSI based broth dilution method; assay type: functional
[22] = Antibacterial activity against multidrug-resistant Pseudomonas aeruginosa CCARM 2095 assessed as fractional inhibitory concentration incubated for 24 hrs in presence of chloramphenicol by CLSI based broth dilution method; assay type: functional
Escherichia coli [23] = assay: Antibacterial activity against Escherichia coli KCTC 1682 assessed as reduction in bacterial growth incubated for 24 hrs in presence of 2.5 mM CaCl2 by CLSI based broth dilution method; assay type: functional; details: read-out: MIC100
RAW264.7 [24] = assay: Antiinflammatory activity against mouse RAW264.7 cells assessed as reduction in LPS-induced TNFalpha mRNA expression at 10 uM incubated for 3 hrs by qRT-PCR analysis; assay type: functional, cell-based
[25] = Antibacterial activity against multidrug-resistant Pseudomonas aeruginosa CCARM 2095 assessed as reduction in bacterial growth incubated for 24 hrs in presence of ciprofloxacin by CLSI based broth dilution method; assay type: functional; details: read-out: MIC100
Staphylococcus aureus [26] = assay: Antibacterial activity against methicillin-resistant Staphylococcus aureus CCARM 3090 assessed as fractional inhibitory concentration incubated for 24 hrs in presence of ciprofloxacin by CLSI based broth dilution method; assay type: functional
[27] = Antibacterial activity against multidrug-resistant Pseudomonas aeruginosa CCARM 2095 assessed as fractional inhibitory concentration incubated for 24 hrs in presence of ciprofloxacin by CLSI based broth dilution method; assay type: functional
[28] = Antibacterial activity against multidrug-resistant Pseudomonas aeruginosa CCARM 2095 assessed as reduction in bacterial growth incubated for 24 hrs in presence of oxacillin by CLSI based broth dilution method; assay type: functional; details: read-out: MIC100
Escherichia coli [29] = assay: Antibacterial activity against Escherichia coli KCTC 1682 assessed as reduction in bacterial growth incubated for 24 hrs in presence of 150 mM NaCl by CLSI based broth dilution method; assay type: functional; details: read-out: MIC100
Staphylococcus aureus [30] = assay: Antibacterial activity against Staphylococcus aureus KCTC 1621 assessed as reduction in bacterial growth incubated for 24 hrs in presence of 20 % serum by CLSI based broth dilution method; assay type: functional; details: read-out: MIC100
Staphylococcus aureus [31] = assay: Antibacterial activity against methicillin-resistant Staphylococcus aureus CCARM 3090 assessed as fractional inhibitory concentration incubated for 24 hrs in presence of oxacillin by CLSI based broth dilution method; assay type: functional
[32] = Antibacterial activity against multidrug-resistant Pseudomonas aeruginosa CCARM 2095 assessed as reduction in bacterial growth incubated for 24 hrs in presence of chloramphenicol by CLSI based broth dilution method; assay type: functional; details: read-out: MIC100
Escherichia coli [33] = assay: Antibacterial activity against Escherichia coli KCTC 1682 assessed as reduction in bacterial growth incubated for 24 hrs in presence of 4.5 mM KCl by CLSI based broth dilution method; assay type: functional; details: read-out: MIC100
Staphylococcus aureus [34] = assay: Antibacterial activity against Staphylococcus aureus KCTC 1621 assessed as reduction in bacterial growth incubated for 24 hrs in presence of 4.5 mM KCl by CLSI based broth dilution method; assay type: functional; details: read-out: MIC100
Staphylococcus aureus [35] = assay: Antibacterial activity against Staphylococcus aureus KCTC 1621 assessed as reduction in bacterial growth incubated for 24 hrs in presence of 150 mM NaCl by CLSI based broth dilution method; assay type: functional; details: read-out: MIC100
Staphylococcus aureus [36] = assay: Antibacterial activity against methicillin-resistant Staphylococcus aureus CCARM 3090 assessed as fractional inhibitory concentration index incubated for 24 hrs in presence of oxacillin by CLSI based broth dilution method; assay type: functional
RAW264.7 [37] = assay: Antiinflammatory activity against mouse RAW264.7 cells assessed as reduction in LPS-induced iNOS mRNA expression at 5 uM incubated for 6 hrs by qRT-PCR analysis; assay type: functional, cell-based
Staphylococcus aureus [38] = assay: Antibacterial activity against Staphylococcus aureus KCTC 1621 assessed as reduction in bacterial growth incubated for 24 hrs in presence of 6 uM NH4Cl by CLSI based broth dilution method; assay type: functional; details: read-out: MIC100
Cell membrane [39] = assay: Induction of cell membrane permeability in Staphylococcus aureus KCTC 1621 assessed as cytoplasmic membrane depolarization at 2 times MIC by SYTOX dye based fluorescence assay; assay type: subcellular
Staphylococcus aureus [40] = assay: Antibacterial activity against methicillin-resistant Staphylococcus aureus CCARM 3090 assessed as reduction in bacterial growth incubated for 24 hrs in presence of ciprofloxacin by CLSI based broth dilution method; assay type: functional; details: read-out: MIC100
Staphylococcus aureus [41] = assay: Antibacterial activity against Staphylococcus aureus KCTC 1621 assessed as reduction in bacterial growth incubated for 24 hrs in presence of 1 mM MgCl2 by CLSI based broth dilution method; assay type: functional; details: read-out: MIC100
RAW264.7 [42] = assay: Antiinflammatory activity in mouse RAW264.7 cells assessed as suppression of LPS binding by measuring LPS-FITC aggregation at 10 uM pretreated with LPS for 1 hr followed by compound addition and measured after 30 mins by flowcytometry analysis (reference value: 67.93 %); assay type: functional; details: 0.5 h

SMILES: CC[C@H](C)[C@H](NC(=O)[C@H](CCCCN)NC(=O)[C@H](CCC(=O)O)NC(=O)[C@H](CCCCN)NC(=O)[C@H](CO)NC(=O)[C@H](CCCCN)NC(=O)[C@H](CCCNC(=N)N)NC(=O)[C@H](Cc1ccccc1)NC(=O)[C@H](Cc1ccccc1)NC(=O)[C@H](CC(=O)O)NC(=O)CNC(=O)[C@H](CC(C)C)NC(=O)[C@@H](N)CC(C)C)C(=O)NCC(=O)N[C@@H](CCCCN)C(=O)N[C@@H](CCC(=O)O)C(=O)N[C@@H](Cc1ccccc1)C(=O)N[C@@H](CCCCN)C(=O)N[C@@H](CCCNC(=N)N)C(=O)N[C@H](C(=O)N[C@H](C(=O)N[C@@H](CCC(N)=O)C(=O)N[C@@H](CCCNC(=N)N)C(=O)N[C@H](C(=O)N[C@@H](CCCCN)C(=O)N[C@@H](CC(=O)O)C(=O)N[C@@H](Cc1ccccc1)C(=O)N[C@@H](CC(C)C)C(=O)N[C@@H](CCCNC(=N)N)C(=O)N[C@@H](CC(N)=O)C(=O)N[C@@H](CC(C)C)C(=O)N[C@H](C(=O)N1CCC[C@H]1C(=O)N[C@@H](CCCNC(=N)N)C(=O)N[C@H](C(=O)N[C@@H](CCC(=O)O)C(=O)N[C@@H](CO)C(=O)O)[C@@H](C)O)C(C)C)[C@@H](C)CC)C(C)C)[C@@H](C)CC [CATHELICIDIN]
- FIC (Staphylococcus aureus [1]): 0.5
- fractional inhibitory concentration index (FICI) (Staphylococcus aureus [2]): 0.75
- MIC (Staphylococcus aureus [3]): 64 µM
- MIC (Escherichia coli [4]): 16 µM
- fractional inhibitory concentration index (FICI) [5]: 1
- fractional inhibitory concentration index (FICI) [6]: 0.75
- inhibition (Lipopolysaccharide (LPS) [7]): Dose-dependent effect
- MIC (Escherichia coli [8]): 8 µM
- Activity (RAW264.7 [9]): 13.98%
- MIC (Escherichia coli [10]): 8 µM
- Activity (Cell membrane [11]): Active
- MIC (Staphylococcus aureus [12]): 16 µM
- MIC (Staphylococcus aureus [13]): 16 µM
- fractional inhibitory concentration index (FICI) [14]: 1.25
- MIC (Escherichia coli [15]): 16 µM
- Activity (Lipopolysaccharide (LPS) [16]): 68%
- fractional inhibitory concentration index (FICI) (Staphylococcus aureus [17]): 1
- Activity (Cell membrane [18]): 70.1%
- MIC (Staphylococcus aureus [19]): 128 µM
- Activity (Cell membrane [20]): Active
- FIC [21]: 0.25
- FIC [22]: 0.5
- MIC (Escherichia coli [23]): 16 µM
- inhibition (RAW264.7 [24]): Active
- MIC [25]: 128 µM
- FIC (Staphylococcus aureus [26]): 0.5
- FIC [27]: 0.25
- MIC [28]: 128 µM
- MIC (Escherichia coli [29]): 16 µM
- MIC (Staphylococcus aureus [30]): 8 µM
- FIC (Staphylococcus aureus [31]): 0.25
- MIC [32]: 512 µM
- MIC (Escherichia coli [33]): 8 µM
- MIC (Staphylococcus aureus [34]): 8 µM
- MIC (Staphylococcus aureus [35]): 16 µM
- fractional inhibitory concentration index (FICI) (Staphylococcus aureus [36]): 0.75
- inhibition (RAW264.7 [37]): Active
- MIC (Staphylococcus aureus [38]): 8 µM
- Activity (Cell membrane [39]): Active
- MIC (Staphylococcus aureus [40]): 256 µM
- MIC (Staphylococcus aureus [41]): 8 µM
- Activity (RAW264.7 [42]): 25.44%
